Measurements as given in US20220268782A1, “METHODS FOR PREDICTING AND TREATING CARDIAC DYSFUNCTION” (INSERM (INSTITUT NATIONAL DE LA SANTÉ EAT DE LA RECHERCHE …, priority 2019, published 2022).

Key:
Type in all cases: cell-based
C2C12 myoblasts [1] = experiment: Oxidative stress in C2C12 cells (CellROX cytosolic superoxide, MitoSOX mitochondrial superoxide, GSH)
Procedure: (§1) C2C12 (ATCC® CRL-1772™) myoblasts maintained in DMEM supplemented with L-glutamine (2 mM), penicillin/streptomycin (1%) and 5% fetal bovine serum (FBS) were seeded either at a density of 5×10^4 cells (<50%) per well in 24-well plates or 10^4 cells in 4-well chamber slides. Cells were with L-phenylalanine (1-10 mM)+BH4 (10 μM) and incubation with increasing concentrations of N-acetylcysteine (0.5, 2.5, 5 mM) vs. vehicle overnight as indicated. Cells were analysed for oxidative stress with MitoSOX™ (mitochondrial superoxide; 5 μM, ThermoFisher Scientific), CellROX™ (cytosolic superoxide; 5 μM, ThermoFisher Scientific), gene or protein expression, or various metabolites (see below).
(§2) Levels of reduced glutathione (GSH; ThermoFisher), phenylalanine (BioVision) and tyrosine (BioVision) were determined from cells or plasma, with respective agents/kits following the manufacturer's recommendations. Specifically, GSH levels were estimated with the aid of ThiolTracker™ Violet fluorescent probe (ThermoFisher). Plasma and liver phenylalanine levels were determined using an enzyme-coupled, fluorometric method (BioVision). Briefly, samples were deproteinized via trichloroacetate precipitation, neutralised, tyrosinase-treated (to remove tyrosine that may interfere) and diluted to fit in the standard curve. Fluorescence reading took place at 587 nm after excitation at 535 nm. Levels of tyrosine in cells or conditioned media were determined after deproteinization using 10 kDa cut-off columns with an enzyme-coupled, colorimetric method with reading at 491 nm (BioVision).

C2C12 myoblasts [2] = experiment: PA-induced senescence in C2C12 myoblasts (immunoblot of senescence markers, EdU incorporation); details: C2C12 cells
Procedure: (§3) Cells were washed briefly with ice-cold 1×PBS, scraped in 400 μL T-PER lysis buffer (ThermoFisher) supplemented with 0.1 mM phenylmethylsulphonyl fluoride (PMSF) and protease/phosphatase inhibitor cocktail tablet (ThermoFisher). Pulverised tissue samples (20-30 mg) were lysed in the same buffer accelerated by sonication and passing through a 21 G needle. To pellet any debris, lysates were centrifuged at 10,000 g for 10 minutes at 4° C., with the supernatant transferred to fresh tubes. Protein concentrations were determined with Bradford assay (Biorad) and lysates were diluted to equal concentration with lysis buffer. Protein lysates were then mixed with Laemmli buffer, vortexed and heated to 95° C. for 5 min. Equal amounts of protein lysates in parallel with protein molecular weight marker (ThermoFisher) were loaded onto pre-cast polyacrylamide gels (Nupage 10 or 12% Bis Tris gel, Novex, Invitrogen) and separated by electrophoresis at 200V for 1 hour. Proteins were transferred onto polyvinylidene difluoride (PVDF) membrane (Invitrogen) using an electrophoretic transfer cell (Mini Trans-Blot, Bio-Rad) in ice-cold transfer buffer (48 mM Tris base, […], 0.1% SDS, 20% methanol (v/v)) at 300 mA for 2 hours. Membranes were blocked in 1× skimmed milk (ThermoFisher) for 1 hour at room temperature, followed by overnight incubation with primary antibody diluted in blocking buffer at 4° C. Next day membranes were washed, followed by 60 minutes incubation in the corresponding horseradish peroxidase (HRP)-conjugated secondary antibody diluted 1:2000-10000 in blocking buffer (all Abcam). Blots were developed using enhanced chemiluminescence (ECL) reagents (normal, Prime & Select) and digital images were acquired using an imaging system (Azure Biosystems). Membranes were usually stripped of antibodies and reprobed with an antibody targeting a protein serving as loading control (α-actinin for hearts & β-actin for all others). For this procedure, membranes were placed in Guanidine-HCl-based stripping solution (6M Guanidine-HCl, 0.2% Nonidet P-40, 0.1M β-mercaptoethanol, 20 mM Tris-HCl, pH 7.5 and 100 mM 2-mercaptoethanol) and incubated for 10 minutes at room temperature with gentle agitation, followed by extensive washing and re-blocking.^5
as §1

AML-12 hepatocytes = experiment: AML-12 hepatocytes: p21, Pah immunoblot and tyrosine production; details: Nutlin3a vs. vehicle
Procedure: as §3
AML12 cells (ATCC® CRL-2254™) were maintained in DMEM/F-12 (1:1) culture media supplemented with 10% FBS, 10 μg/ml insulin, 5.5 μg/ml transferrin, 5 ng/ml selenium, 40 ng/ml dexamethasone and 1% penicillin/streptomycin. Cells were sub-cultivated from subconfluent flasks with a ratio from 1:4 to 1:8. For WB analysis, cells were plated on 6-well plates and harvested at 80-90% of confluence. AML12 cells were transfected with indicated siRNA (Table 2) at 80% confluence using Lipofectamine RNAiMAX Transfection Reagent (ThermoFischer Scientific 13778030) following the manufacturer's instructions. Transfection efficiency was constantly checked using BLOCK-IT Alexa Fluor Red Fluorescent Control (ThermoFischer Scientific 14750100).
as §2

Compound: N[C@@H](Cc1ccc(Cl)cc1)C(=O)O (racemic) [4-CPA, 4-chlorophenylalanine]
- BH4 rescue of superoxide levels (C2C12 myoblasts [1]; PA + BH4 + 4-CPA, FIG. 1f): prevented
- BH4 antagonism of PA-dependent senescence (C2C12 myoblasts [2]; PA 5 mM + BH4 10 μM + 4-CPA 1.5 mM, FIG. 1c-d): reversed

Compound: CC(=O)N[C@@H](CS)C(=O)O [NAC, N-acetylcysteine]
- cytosolic superoxide levels under PA treatment (C2C12 myoblasts [1]; PA plus co-treatment (BH4 10 μM or NAC), FIG. 1f): restored normal
- reduced glutathione (GSH) levels under PA treatment (C2C12 myoblasts [1]; PA plus co-treatment, data not shown): restored normal
- p21 induction by PA (C2C12 myoblasts [2]; PA + N-acetylcysteine (0.5, 2.5, 5 mM), data not shown): failed to prevent

Compound: COc1ccc(C2=N[C@@H](c3ccc(Cl)cc3)[C@@H](c3ccc(Cl)cc3)N2C(=O)N2CCNC(=O)C2)c(OC(C)C)c1 [Nutlin3a]
- Pah (AML-12 hepatocytes; FIG. 4o): downregulated
- hepatocyte senescence (i.e. p-p53 and p21) (AML-12 hepatocytes; FIG. 4o): induced
- tyrosine production (tyrosine levels in media) (AML-12 hepatocytes; FIG. 4p): depressed
